One assay concerns AB 4106. The assay can be described thus: Broth microdilution, standalone MIC of compound. Format: cell-based, A. baumannii. The note with it: Acinetobacter baumannii, 16 h, read-out: MIC of compound alone, AB 4106. The protocol: Broth microdilution method for the determination of minimum inhibitory concentrations: Bacteria were cultured for 4 to 6 hours in CAMHB and subcultured to 1.04×10^6 CFU/mL for AB 4106 and 1.96×10^6 CFU/mL for KP B9 in fresh CAMHB. To aliquots (1 mL) was added compound from stock solutions in DMSO, such that the compound concentration equaled the highest concentration tested. Samples were then dispensed (200 μL) into the first row of a 96-well microtiter plate in which all but the final row of subsequent wells were prefilled with 100 μL of the untreated bacterial subculture. The final row was filled with media to act as a sterility control and blank. Row one wells were mixed 6-7 times, then, 100 μL was withdrawn and transferred to row two. Row two wells were mixed 6-7 times followed by a 100 μL transfer from row two to row three. This procedure was used to serially dilute the rest of the rows of the microtiter plate, excluding the last prefilled row, which was used to measure growth in the absence of compound. Plates were then sealed with GLAD Press'n Seal and incubated under stationary conditions at 37 C. […] MIC values were determined as the minimum concentration required to achieve 90% growth inhibition compared to growth in untreated wells.

Another assay deals with AB4106 and KPB9. The assay can be described thus: Initial screen for colistin resistance suppression, statements in words for both strains. Type of assay: cell-based, A. baumannii and K. pneumoniae. As to conditions: compound at 5 μM. The protocol:
(§1) Broth microdilution method for measurement of colistin potentiation: Bacteria were cultured for 4 to 6 hours in CAMHB and diluted to 1.04×10^6 CFU/mL for AB 4106 and 1.96×10^6 CFU/mL for KP B9 in fresh CAMHB. To aliquots (4 mL) was added compound from stock solutions in DMSO. One aliquot was not dosed to allow measurement of the colistin MIC in the absence of compound. A 1 mL aliquot of each sample was dosed with colistin, and from this 200 μL was dispensed into the first row of a 96-well microtiter plate in which all but the final row of subsequent wells was prefilled with 100 μL of the corresponding compound dosed bacterial suspension The final row was filled with media to act as a sterility control and blank. Row one wells were mixed 6-7 times, then, 100 μL was withdrawn and transferred to row two. Row two wells were mixed 6-7 times followed by a 100 μL transfer from row two to row three. This procedure was used to serially dilute the rest of the rows of the microtiter plate, excluding the last prefilled row, which was used to measure growth in the presence of compound alone. Plates were then sealed with GLAD
(§2) Press'n Seal and incubated under stationary conditions at 37° C. […] MIC values were determined as the minimum concentration required to achieve 90% growth inhibition compared to growth in untreated wells.

Assay [1] concerns A. baumannii 4106 (AB4106). Nature of the assay: Broth microdilution, colistin potentiation. Format: cell-based. The protocol: as §1, §2
For orientation: Dilution methods test growth across graded concentrations, often in twofold steps.

[2] abbreviates: compound at 5 μM, colistin alone 2048 μg/mL.

Like-named read-outs stand apart in the source and are kept apart here. A value given as a limit tells only on which side of the number the result lay.

For `O=C(Nc1cc(C(F)(F)F)cc(C(F)(F)F)c1)c1cc(O)cc(Cl)c1` [Compound 3, N-(3,5-bis(trifluoromethyl)phenyl)-3-chloro-5-hydroxybenzamide], the MIC in the assay on AB 4106 (standalone, no colistin) was over 200 µM. For the same compound, the “Colistin potentiation activity in words, compared to IMD-0354” value with AB4106 and KPB9 was “essentially equipotent activity to IMD-0354”.
For the compound `COc1ccc(O)c(C(=O)Nc2cc(C(F)(F)F)cc(C(F)(F)F)c2)c1` [Compound 11], the minimum inhibitory concentration (MIC) in the assay with AB 4106 (standalone, no colistin) is over 200 µM. In assay [1] (setting [2]), the “Colistin MIC fold reduction, AB 4106” value is listed as 256 fold.
Regarding `Cc1ccc(O)c(C(=O)Nc2cc(C(F)(F)F)cc(C(F)(F)F)c2)c1` [Compound 12], the minimal inhibitory concentration (MIC) in the assay on AB 4106 (standalone, no colistin) was over 200 µM. The “Colistin MIC fold reduction, AB 4106” value was at most 16 fold in assay [1] (compound at 1 μM), 256 fold in assay [1] (compound at 3 μM) and 512 fold in assay [1] (setting [2]).
For `O=C(Nc1cc(C(F)(F)F)cc(C(F)(F)F)c1)c1cc(O)ccc1O` [Compound 16, N-(3,5-bis(trifluoromethyl)phenyl)-2,5-dihydroxybenzamide], the minimum inhibitory concentration (MIC) in the assay with AB 4106 (standalone, no colistin) was over 200 µM. In addition, the “Colistin potentiation activity in words, AB4106” value in assay [1] (compound at 5 μM) is “essentially inactive”. The “Colistin MIC fold reduction, AB 4106” value in assay [1] (setting [2]) is listed as at most 16 fold.
With `Cc1cc(C)cc(NC(=O)c2cc(Cl)ccc2O)c1` [Compound 20], in the assay with AB 4106 (standalone, no colistin), the MIC is over 200 µM. Besides, the entries for the “Colistin MIC fold reduction, AB 4106” value in assay [1] (compound at 1 μM), in assay [1] (compound at 3 μM) and in assay [1] (setting [2]) were 16 fold, 512 fold and 1024 fold, respectively.
Turning to `Cc1ccc(NC(=O)c2cc(Cl)ccc2O)cc1C(F)(F)F` [Compound 30], the MIC with AB 4106 (standalone, no colistin) is over 200 µM. For the same compound, the “Colistin MIC fold reduction, AB 4106” value in assay [1] (setting [2]) is 32 fold.
`O=C(Nc1ccc(F)cc1Br)c1cc(Cl)ccc1O` [Compound 33]: the minimum inhibitory concentration (MIC) in the assay on AB 4106 (standalone, no colistin) was over 200 µM. Also, in assay [1] (setting [2]), the “Colistin MIC fold reduction, AB 4106” value is 128 fold.
As to `O=C(Nc1c(F)cccc1Br)c1cc(Cl)ccc1O` [Compound 34], in the assay on AB 4106 (standalone, no colistin), the MIC is over 200 µM. Besides, the “Colistin MIC fold reduction, AB 4106” value in assay [1] (setting [2]) is at most 16 fold.
For the compound `O=C(Nc1ccc(F)c([N+](=O)[O-])c1)c1cc(Cl)ccc1O` [Compound 35, 5-chloro-N-(4-fluoro-3-nitrophenyl)-2-hydroxybenzamide], the MIC in the assay on AB 4106 (standalone, no colistin) was over 200 µM. Further, the “Colistin potentiation activity in words, AB4106” value in assay [1] (compound at 5 μM) is “Neither compound displayed significant activity”. For the same compound, in assay [1] (setting [2]), the “Colistin MIC fold reduction, AB 4106” value is 32 fold.
Turning to `O=C(Nc1ccc(Br)cc1)c1cc(Cl)ccc1O` [Compound 37], the MIC with AB 4106 is over 200 µM. The results for the “Colistin MIC fold reduction, AB 4106” value in assay [1] (compound at 1 μM), in assay [1] (compound at 3 μM) and in assay [1] (setting [2]) were 128 fold, 1024 fold and 2048 fold, respectively.
For the compound `O=C(Nc1cccc(Cl)c1)c1cc(Cl)ccc1O` [Compound 40], in the assay on AB 4106 (standalone, no colistin), the MIC was over 200 µM. Moreover, the “Colistin MIC fold reduction, AB 4106” value in assay [1] (compound at 1 μM) is listed as at most 16 fold; in assay [1] (compound at 3 μM), 256 fold; in assay [1] (setting [2]), 1024 fold.
Turning to `O=C(Nc1cc(Cl)c(Br)c(Cl)c1)c1cc(Cl)ccc1O` [Compound 41, N-(4-bromo-3,5-dichlorophenyl)-5-chloro-2-hydroxybenzamide], the minimal inhibitory concentration (MIC) in the assay on AB 4106 (standalone, no colistin) was over 200 µM. In addition, the “Colistin MIC fold reduction, AB 4106” value in assay [1] (setting [2]) stood at 128 fold.
For the compound `O=C(Nc1cc(F)cc(F)c1)c1cc(F)ccc1O` [Compound 42], in the assay with AB 4106 (standalone, no colistin), the MIC was found to be 200 µM. Moreover, the “Colistin MIC fold reduction, AB 4106” value in assay [1] (setting [2]) worked out at 256 fold.
Turning to `O=C(Nc1cc(Cl)cc(Cl)c1)c1cc(F)ccc1O` [Compound 43], the minimum inhibitory concentration (MIC) in the assay with AB 4106 (standalone, no colistin) is over 200 µM. Further, the “Colistin MIC fold reduction, AB 4106” value was determined as 128 fold in assay [1] (compound at 1 μM), 512 fold in assay [1] (compound at 3 μM) and 1024 fold in assay [1] (setting [2]).
`Cc1cc(C)cc(NC(=O)c2cc(F)ccc2O)c1` [Compound 44, N-(3,5-dimethylphenyl)-5-fluoro-2-hydroxybenzamide]: the MIC with AB 4106 (standalone, no colistin) was over 200 µM. For the same compound, the “Colistin MIC fold reduction, AB 4106” value in assay [1] (setting [2]) was at most 16 fold.
As to `O=C(Nc1cc(F)cc(F)c1)c1cc(Br)ccc1O` [Compound 45], the minimal inhibitory concentration (MIC) with AB 4106 (standalone, no colistin) is over 200 µM. Moreover, the “Colistin MIC fold reduction, AB 4106” value in assay [1] (compound at 1 μM) came to 256 fold; in assay [1] (compound at 3 μM), 512 fold; in assay [1] (setting [2]) it was 1024 fold.
For `O=C(Nc1cc(Cl)cc(Cl)c1)c1cc(Br)ccc1O` [Compound 46], in that order: over 200 µM, 32 fold, 256 fold and 512 fold.
For `O=C(Nc1cc(Br)cc(Br)c1)c1cc(Br)ccc1O` [Compound 47], in that order: over 200 µM, 256 fold, 1024 fold and 1024 fold.
As for `Cc1cc(C)cc(NC(=O)c2cc(Br)ccc2O)c1` [Compound 48], the MIC in the assay on AB 4106 (standalone, no colistin) is over 200 µM. In addition, in assay [1] (setting [2]), the “Colistin MIC fold reduction, AB 4106” value was determined as 128 fold.
For the compound `O=C(Nc1cc(C(F)(F)F)ccc1C(F)(F)F)c1cc(Br)ccc1O` [Compound 49], the MIC in the assay on AB 4106 (standalone, no colistin) worked out at 200 µM. Moreover, the entries for the “Colistin MIC fold reduction, AB 4106” value in assay [1] (compound at 1 μM), in assay [1] (compound at 3 μM) and in assay [1] (setting [2]) were 256 fold, 1024 fold and 2048 fold, respectively.
Regarding `O=C(Nc1cc(F)cc(F)c1)c1cc(I)ccc1O` [Compound 50], the MIC in the assay with AB 4106 (standalone, no colistin) is over 200 µM. Further, the “Colistin MIC fold reduction, AB 4106” value in assay [1] (compound at 1 μM) turned out to be 64 fold; in assay [1] (compound at 3 μM), 256 fold; in assay [1] (setting [2]) it was 512 fold.
Turning to `Cc1cc(C)cc(NC(=O)c2cc(I)ccc2O)c1` [Compound 53], in the assay on AB 4106 (standalone, no colistin), the minimum inhibitory concentration (MIC) was over 200 µM. Further, the “Colistin MIC fold reduction, AB 4106” value in assay [1] (setting [2]) is 256 fold.
As to `O=C(Nc1cc(F)cc(F)c1)c1ccc(C(F)(F)F)cc1O` [Compound 54, N-(3,5-difluorophenyl)-2-hydroxy-4-(trifluoromethyl)benzamide], the MIC in the assay on AB 4106 (standalone, no colistin) worked out at 200 µM. Moreover, the “Colistin MIC fold reduction, AB 4106” value stood at 64 fold in assay [1] (compound at 1 μM), 512 fold in assay [1] (compound at 3 μM) and 1024 fold in assay [1] (setting [2]).
As to `O=C(Nc1cc(Cl)cc(Cl)c1)c1ccc(C(F)(F)F)cc1O` [Compound 55, N-(3,5-dichlorophenyl)-2-hydroxy-4-(trifluoromethyl)benzamide], in the assay with AB 4106 (standalone, no colistin), the MIC was over 200 µM. In addition, the “Colistin MIC fold reduction, AB 4106” value in assay [1] (compound at 1 μM) worked out at 256 fold; in assay [1] (compound at 3 μM) it was 1024 fold; in assay [1] (setting [2]), 2048 fold.
For `O=C(Nc1cc(Br)cc(Br)c1)c1ccc(C(F)(F)F)cc1O` [Compound 56], in that order: over 200 µM, 256 fold, 1024 fold and 2048 fold.
As to `Cc1cc(C)cc(NC(=O)c2ccc(C(F)(F)F)cc2O)c1` [Compound 57, N-(3,5-dimethylphenyl)-2-hydroxy-4-(trifluoromethyl)benzamide], the MIC in the assay with AB 4106 (standalone, no colistin) is over 200 µM. The “Colistin MIC fold reduction, AB 4106” value in assay [1] (setting [2]) is 256 fold.
Taken in the same sequence, the figures for `Cc1cc(C)cc(NC(=O)c2cccc(Cl)c2O)c1` [Compound 58, 3-chloro-N-(3,5-dimethylphenyl)-2-hydroxybenzamide] were over 200 µM and at most 16 fold.
Taken in the same sequence, the figures for `Cc1cc(C)cc(NC(=O)c2cc(Cl)cc(Cl)c2O)c1` [Compound 59, 3,5-dichloro-N-(3,5-dimethylphenyl)-2-hydroxybenzamide] were over 200 µM and at most 16 fold.
Consider `O=C(Nc1cc(Br)cc(Br)c1)c1cc(Cl)cc(Cl)c1O` [Compound 60, 3,5-dichloro-N-(3,5-dibromophenyl)-2-hydroxybenzamide], for which, in the assay on AB 4106 (standalone, no colistin), the MIC came to 50 µM. Also, the “Colistin MIC fold reduction, AB 4106” value in assay [1] (compound at 1 μM) is 128 fold; in assay [1] (compound at 3 μM), 512 fold; in assay [1] (setting [2]) it was 2048 fold.
For `O=C(Nc1cc(Cl)cc(Cl)c1)c1cc(Cl)cc(Cl)c1O` [Compound 62], in that order: 100 µM, 32 fold, 256 fold and 512 fold.

In general, MIC refers to the least concentration at which growth counts as inhibited.

(Values after patent US20220356147A1, “COMPOUNDS AND METHODS FOR POTENTIATING COLISTIN ACTIVITY” (University of Notre Dame du Lac, priority 2019, published 2022).)
